Results as given in US6534542B2, “(2-hydroxy)ethyl-thioureas useful as modulators of α2B adrenergic receptors” (Allergen Sales, Inc., priority 2001, dated 2003).

Key:
[1] = target: T1, alpha2A receptor (Homo sapiens, UniProt P08913); experiment: Receptor Selection and Amplification Technology (RSAT) assay, alpha2A; type: cell-based; conditions: NIH-3T3 cells; for EC50: NA = not active at concentrations less than 10 micromolar, read-out: RSAT EC50 (nM) Alpha 2A; for fraction of activity of the standard (brimonidine) attained, Alpha 2A (number in parenthesis): ratio of maximal effect to that of standard full agonist brimonidine
T1 construct: expressed in transfected cells; host or cells: NIH-3T3
T1 sequence (P08913 1-465): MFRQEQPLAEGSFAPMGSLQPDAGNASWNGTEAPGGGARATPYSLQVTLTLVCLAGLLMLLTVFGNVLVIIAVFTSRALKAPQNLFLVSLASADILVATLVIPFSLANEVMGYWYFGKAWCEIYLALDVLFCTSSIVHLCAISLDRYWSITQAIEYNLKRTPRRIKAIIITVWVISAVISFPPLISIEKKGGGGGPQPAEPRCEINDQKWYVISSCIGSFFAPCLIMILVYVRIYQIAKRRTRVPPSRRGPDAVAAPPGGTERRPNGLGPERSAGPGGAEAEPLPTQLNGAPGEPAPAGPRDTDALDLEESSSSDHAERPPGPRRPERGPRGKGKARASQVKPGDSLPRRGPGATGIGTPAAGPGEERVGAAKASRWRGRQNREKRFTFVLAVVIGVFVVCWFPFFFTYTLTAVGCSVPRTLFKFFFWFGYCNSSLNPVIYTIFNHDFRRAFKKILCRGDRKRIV
Source text: (§1) The compounds of the invention are agonists of α2 adrenergic receptors, particularly they tend to be specific or selective agonists of α2B and/or to a lesser extent α2C adrenergic receptors, in preference over α2A adrenergic receptors. […] Al., 1995, Pharmacol. Toxicol. 76, pp. 308-311 (incorporated herein by reference) and is also described below. Another reference pertinent to this assay is Conklin et al. (1993) Nature 363:274-6, also incorporated herein by reference.
(§2) The RSAT assay measures a receptor-mediated loss of contact inhibition that results in selective proliferation of receptor-containing cells in a mixed population of confluent cells. The increase in cell number is assessed with an appropriate transfected marker gene such as β-galactosidase, the activity of which can be easily measured in a 96-well format. Receptors that activate the G protein, Gq, elicit this response. Alpha2 receptors, which normally couple to Gi, activate the RSAT response when coexpressed with a hybrid Gq protein that has a Gi receptor recognition domain, called Gq/i5^2.
(§3) NIH-3T3 cells are plated at a density of 2×10^6 cells in 15 cm dishes and maintained in Dulbecco's modified Eagle's medium supplemented with 10% calf serum. One day later, cells are cotransfected by calcium phosphate precipitation with mammalian expression plasmids encoding p-SV-β-galactosidase (5-10 μg), receptor (1-2 μg) and G protein (1-2 μg). 40 μg salmon sperm DNA may also be included in the transfection mixture. Fresh media is added on the following day and 1-2 days later, cells are harvested and frozen in 50 assay aliquots. Cells are thawed and 100 μl added to 100 μl aliquots of various concentrations of drugs in triplicate in 96-well dishes. Incubations continue 72-96 hr at 37°. After washing with phosphate-buffered saline, β-galactosidase enzyme activity is determined by adding 200 μl of the chromogenic substrate (consisting of 3.5 mM o-nitrophenyl-β-D-galactopyranoside and 0.5% nonidet P-40 in phosphate buffered saline), incubating overnight at 30 and measuring optical density at 420 nm. The absorbance is a measure of enzyme activity, which depends on cell number and reflects a receptor-mediated cell proliferation. The EC50 and maximal effect of each drug at each alpha2 receptor is determined. The efficacy or intrinsic activity is calculated as a ratio of the maximal effect of the drug to the maximal effect of a standard full agonist for each receptor subtype. Brimonidine, also called […], the chemical structure of which is shown below, is used as the standard agonist for the alpha2A, alpha2B and alpha2C receptors. [drawing 6]
The results of the RSAT assay with several exemplary compounds of the invention are disclosed in Table 3. […] NA stands for “not active” at concentrations less than 10 micromolar. […]

[2] = target: T2, alpha2C receptor (Homo sapiens, UniProt P18825); experiment: Receptor Selection and Amplification Technology (RSAT) assay, alpha2C; type: cell-based; conditions: NIH-3T3 cells; for EC50: NA = not active at concentrations less than 10 micromolar, read-out: RSAT EC50 (nM) Alpha 2C; for fraction of activity of the standard (brimonidine) attained, Alpha 2C (number in parenthesis): ratio of maximal effect to that of standard full agonist brimonidine
T2 construct: expressed in transfected cells; host or cells: NIH-3T3
T2 sequence (P18825 1-462): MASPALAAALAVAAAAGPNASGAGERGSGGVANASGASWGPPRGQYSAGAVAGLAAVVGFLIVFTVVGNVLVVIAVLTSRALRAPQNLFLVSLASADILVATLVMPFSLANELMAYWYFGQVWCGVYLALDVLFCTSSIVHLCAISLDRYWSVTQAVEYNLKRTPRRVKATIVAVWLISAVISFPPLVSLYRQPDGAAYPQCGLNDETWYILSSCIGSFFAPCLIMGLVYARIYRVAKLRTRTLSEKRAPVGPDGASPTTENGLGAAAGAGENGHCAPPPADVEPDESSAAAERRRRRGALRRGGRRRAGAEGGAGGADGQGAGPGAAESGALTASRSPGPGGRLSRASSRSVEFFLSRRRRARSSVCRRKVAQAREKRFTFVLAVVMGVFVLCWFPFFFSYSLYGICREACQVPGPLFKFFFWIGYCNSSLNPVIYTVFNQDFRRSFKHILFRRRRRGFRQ
Source text: as §1, §2, §3
(§4) The results of the RSAT assay with several exemplary compounds of the invention are disclosed in Table 3. […] NA stands for “not active” at concentrations less than 10 micromolar. As is known EC50 is the concentration at which half of a given compound's maximal activity is observed. It can be seen from the table that the compounds of the invention are specific or selective agonists of α2B and/or α2C adrenergic receptors, with no agonist like activity or only with insignificant agonist-like activity on α2A receptors.

[3] = target: T3, alpha2B receptor (Homo sapiens, UniProt P18089); experiment: Receptor Selection and Amplification Technology (RSAT) assay, alpha2B; type: cell-based; conditions: NIH-3T3 cells; for EC50: NA = not active at concentrations less than 10 micromolar, read-out: RSAT EC50 (nM) Alpha 2B; for fraction of activity of the standard (brimonidine) attained, Alpha 2B (number in parenthesis): ratio of maximal effect to that of standard full agonist brimonidine
T3 construct: expressed in transfected cells; host or cells: NIH-3T3
T3 sequence (P18089 1-450): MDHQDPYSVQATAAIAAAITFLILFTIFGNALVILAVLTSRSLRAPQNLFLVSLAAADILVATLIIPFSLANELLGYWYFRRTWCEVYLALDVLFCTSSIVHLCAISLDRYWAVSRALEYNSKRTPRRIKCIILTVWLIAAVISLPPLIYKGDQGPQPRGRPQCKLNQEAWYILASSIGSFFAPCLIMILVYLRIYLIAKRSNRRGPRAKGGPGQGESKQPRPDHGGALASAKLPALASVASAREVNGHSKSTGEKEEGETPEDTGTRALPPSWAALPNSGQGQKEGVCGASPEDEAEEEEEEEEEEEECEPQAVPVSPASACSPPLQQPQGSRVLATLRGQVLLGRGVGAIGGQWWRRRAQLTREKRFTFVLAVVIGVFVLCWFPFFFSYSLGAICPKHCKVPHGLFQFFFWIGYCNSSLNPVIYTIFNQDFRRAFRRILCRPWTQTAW
Source text: as §1, §2, §3, §4

[4] = system: rats with ligated L5 and L6 spinal nerves; experiment: Alleviation of chronic pain: tactile allodynia after L5/L6 spinal nerve ligation (von Frey hairs); type: in vivo, rat; conditions: 30 minutes after administration, ±SEM
Source text: A model for chronic pain (in particular peripheral neuropathy such as causalgia) involves the surgical ligation of the L5 (and optionally the L6) spinal nerves on one side in experimental animals. Rats recovering from the surgery gain weight and display a level of general activity similar to that of normal rats. However, these rats develop abnormalities of the foot, wherein the hindpaw is moderately everted and the toes are held together. More importantly, the hindpaw on the side affected by the surgery appears to become sensitive to pain from low-threshold mechanical stimuli, such as that producing a faint sensation of touch in a human, within about 1 week following surgery. This sensitivity to normally non-painful touch is called “tactile allodynia” and lasts for at least two months. The response includes lifting the affected hindpaw to escape from the stimulus, licking the paw and holding it in the air for many seconds. None of these responses is normally seen in the control group.
Rats are anesthetized before surgery. The surgical site is shaved and prepared either with betadine or Novacaine. Incision is made from the thoracic vertebra XIII down toward the sacrum. Muscle tissue is separated from the spinal vertebra (left side) at the L4-S2 levels. The L6 vertebra is located and the transyerse process is carefully removed with a small rongeur to expose the L4-L6 spinal nerves. The L5 and L6 spinal nerves are isolated and tightly ligated with 6-0 silk thread. The same procedure is done on the right side as a control, except no ligation of the spinal nerves is performed. A complete hemostasis is confirmed, then the wounds are sutured. A small amount of antibiotic ointment is applied to the incised area, and the rat is transferred to the recovery plastic cage under a regulated heat-temperature lamp. On the day of the experiment, at least seven days after the surgery, typically six rats per test group are administered the test drugs by intraperitoneal (i.p.) injection or oral gavage. For i.p. injection, the compounds are formulated in approximately 10 to 50% DMSO and given in a volume of 1 ml/kg body weight.
Tactile allodynia is measured prior to and 30 minutes after drug administration using von Frey hairs that are a series of fine hairs with incremental differences in stiffness. Rats are placed in a plastic cage with a wire mesh bottom and allowed to acclimate for approximately 30 minutes. The von Frey hairs are applied perpendicularly through the mesh to the mid-plantar region of the rats' hindpaw with sufficient force to cause slight buckling and held for 6-8 seconds. The applied force has been calculated to range from 0.41 to 15.1 grams. If the paw is sharply withdrawn, it is considered a positive response. A normal animal will not respond to stimuli in this range, but a surgically ligated paw will be withdrawn in response to a 1-2 gram hair. The 50% paw withdrawal threshold is determined using the method of Dixon, […]. The post-drug threshold is compared to the pre-drug threshold and the percent reversal of tactile sensitivity is calculated based on a normal threshold of 15.1 grams. The results are expressed in per cent (%) MPE, where the MPE value reflects the percentage reversal of pain threshold to that of a normal animal (100%). Table 4 below indicates results of this test with Compounds 8, 34 and 40 of the invention, administered i.p., in intrathecal and oral doses.

[5] = system: male Sprague-Dawley rats; experiment: Sedative activity (exploratory behavior after i.p. injection); type: in vivo; conditions: rat, intraperitoneally, up to a dose of 300 μg/kg
Procedure: To test sedation, six male Sprague-Dawley rats are given up to 3 mg/kg of the test compound in a saline or DMSO vehicle by intraperitoneal injection (i.p.). Sedation is graded 30 minutes following administration of the drug by monitoring locomotor skills as follows.
The Sprague-Dawley rats are weighed and 1 ml/kg body weight of an appropriate concentration (ie. 3 mg/ml for a final dose of 3 mg/kg) drug solution is injected intraperitoneally. Typically the test compound is formulated in approximately 10 to 50% DMSO. The results are compared to controls that are injected with 1 ml/kg saline or 10 to 50% DMSO. Rat activity is then determined 30 minutes after injection of the drug solution. Rats are placed in a dark covered chamber and a digicom analyzer (Omnitech Electronic) quantitates their exploratory behavior for a five-minute period. The machine records each time the rat interrupts an array of 32 photoelectric beams in the X and Y orientation.

| Structure (SMILES) | EC50 [1] | fraction of activity of the standard (brimonidine) attained, Alpha 2A (number in parenthesis) [1] | EC50 [2] | fraction of activity of the standard (brimonidine) attained, Alpha 2C (number in parenthesis) [2] | EC50 [3] | fraction of activity of the standard (brimonidine) attained, Alpha 2B (number in parenthesis) [3] | % MPE ([4]; IP dose 10 μg/kg) | % MPE ([4]; IP dose 30 μg/kg) | % MPE ([4]; IP dose 100 μg/kg) | % MPE ([4]; IP dose 300 μg/kg) | % MPE ([4]; IP dose 1000 μg/kg) | % MPE ([4]; IP dose 3000 μg/kg) | % MPE ([4]; Oral dose 1000 μg/kg) | sedative effect [5] |
| --- | --- | --- | --- | --- | --- | --- | --- | --- | --- | --- | --- | --- | --- | --- |
| CC[C@H]1CCCC[C@@H]1NC(=S)NCCO (relative stereo) [Compound 37, 1-(trans-2-Ethyl-cyclohexyl)-3-(2-hydroxy-ethyl)-thiourea] | 14 nM | (0.4) | 106 nM | (0.4) | 2 nM | (0.93) |  |  |  |  |  |  |  |  |
| CC1=C(C)C(NC(=S)NCCO)CC1 (stereo not shown) [Compound 15, 1-(2,3-Dimethyl-cyclopent-2-enyl)-3-(2-hydroxy-ethyl)-thiourea] | 515 nM | (0.4) | 197 nM | (0.4) | 5 nM | (1.08) |  |  |  |  |  |  |  |  |
| C[C@H]1CC[C@H](NC(=S)NCCO)CC1 [Compound 40, 1-(2-Hydroxy-ethyl)-3-(4-methyl-cyclohexyl)-thiourea] |  |  |  |  | 57 nM | (0.62) | 0.1 ± 1.8 % MPE | 42 ± 9.2 % MPE | 46 ± 7.1 % MPE | 77 ± 8.0 % MPE | 83 ± 7.0 % MPE | 90 ± 6.1 % MPE | 80 ± 6.1 % MPE | no sedative effect |
